Here are results for 2 compounds from patent US5672597A, “Acetamide derivative” (Kaken Pharmaceutical Co., Ltd., priority 1992, dated 1997).

Assay [1] relates to ulcer induced by a stress of restraint plus water-immersion. Nature of the assay: Test of ulcer induced by a stress of restraint plus water-immersion. It is filed as in vivo, ddY male mouse. The conditions noted are these: 7 h; mouse, 30 mg/kg oral, 15 minutes before the load of the stress; hydrochloride salts; read-out: Percentage of inhibition of ulcer formation. The protocol:
(§1) With respect to anti-ulcer effect of the compounds having the general formula (I), there were carried out a test of ulcer induced by pylorus-ligation, which ulcer is induced mainly due to offensive factors; a test of ulcer induced by hydrochloric acid/ethanol, which ulcer is induced mainly due to defensive factors such as mucosal blood flow and mucus; and a test of ulcer induced by a stress of restraint plus water-immersion, which ulcer is induced due to both of offensive and defensive factors. Further, there were carried out a test of ulcer induced by acetic acid as a chronic ulcer model and a test of cure-prolonged ulcer induced by acetic acid. Also, there was examined an activity of increasing gastric mucosal blood flow, which activity brings about acceleration of regeneration of the gastric mucosa. As test compounds, hydrochloride salts were used.
A ddY male mouse weighing 20 to 25 g, which had fasted for 18 hours, was put into a stress cage, and was loaded with a stress by immersing it in a water tank at 23° C., to a level of a xiphoid. After 7 hours, the animal was sacrificed by dislocating the cervical vertebrae and the stomach was taken out therefrom. The length of the ulcer generated on the glandular stomach was measured and the total thereof was regarded as the ulcer coefficient (mm).
To control group, only the medium for the medicament solution was orally administered in an amount of 0.1 ml/10 g (body weight) 15 minutes before the load of the stress.
(§2) The obtained results were subjected to the same formula as in the test of ulcer induced by pylorus-ligation, to calculate a percentage of inhibition of ulcer formation. Six rats were used in each group for the test.

For assay [2], the system named is ulcer induced by pylorus-ligation. Briefly: Test of ulcer induced by pylorus-ligation. The note with it: 14 h; rat, 100 mg/kg, in the duodenum immediately after ligating the pylorus; hydrochloride salts; read-out: Percentage of inhibition of ulcer formation. It is filed as in vivo, wistar male rat. The protocol:
as §1
The pylorus of a wistar male rat weighing 230 to 250 g, which had fasted for 48 hours, was ligated under ether-anesthesia, according to a usual method. After 14 hours, the animal was sacrificed by ether and the stomach was taken out therefrom.
The area of the ulcer generated on the fore-stomach was measured and the total area of the ulcer per rat was classified into the following six grades to give ulcer coefficients (Table 4).
Each of them was suspended in 0.5% methylcellulose solution and administered in the duodenum immediately after ligating the pylorus, in a dose of 100 mg/kg (body weight), respectively. To control group, only the medium for the medicament solution was administered in an amount of 0.25 ml/100 g (body weight).
The obtained results were subjected to the following formula to calculate a percentage of inhibition of ulcer formation. Six rats were used in each group for the test: [formula]

Assay [3] deals with gastric mucosal blood flow. Briefly: Activity of increasing gastric mucosal blood flow. The conditions noted are these: rat, urethane-anesthesia, 220 μg/kg intravenous, 60 minutes after administration. It is filed as in vivo, wistar male rat. The protocol: as §1
An amount of the mucosal blood flow in the body of the stomach of a wistar male rat weighing 220 to 240 g under urethane-anesthesia was measured by means of a laser doppler blood flow meter. As test compounds, there were used the compound of the present invention and, as comparative compound, FRG-8813. Each of them was intravenously administered in a dose of 220 μg/kg. A percentage of increase of the blood flow was calculated 60 minutes after the administration. Five rats were used for each group for the test.

The test system of assay [4] is ulcer induced by hydrochloric acid/ethanol. Nature of the assay: Test of ulcer induced by hydrochloric acid/ethanol. Type of assay: in vivo, wistar male rat. The note with it: 1 h; rat, 30 mg/kg oral, 30 minutes before hydrochloric acid/ethanol; hydrochloride salts; read-out: Percentage of inhibition of ulcer formation. The protocol: as §1
To a wistar male rat weighing 220 to 240 g, which had fasted and thirsted for 24 hours, was orally administered 150 mM hydrochloric acid/70% ethanol solution in an amount of 5 ml/kg (body weight). After 1 hour, the animal was sacrificed by dislocating the cervical vertebrae and the stomach was taken out therefrom. The length of the ulcer generated on the glandular stomach was measured and the total thereof was regarded as the ulcer coefficient (mm).
To control group, only the medium for the medicament solution was orally administered in an amount of […] (body weight), 30 minutes before the administration of hydrochloric acid/ethanol.
as §2

For assay [5], the system named is cure-prolonged ulcer induced by acetic acid. Nature of the assay: Test of cure-prolonged ulcer induced by acetic acid. It is filed as in vivo, wistar male rat. The conditions noted are these: rat, 50 mg/kg oral, twice a day; cure prolonged with indomethacin 1 mg/kg s.c. for 13 days. The protocol: as §1
Into the junction of the glandular stomach and the antrum, of a wistar male rat weighing 220 to 240 g, was injected subserosally 30 μl of 20% acetic acid to generate an ulcer induced by acetic acid. From 2 days after the generation of the ulcer, indomethacin was injected subcutaneously in the regions of back of the rat in a dose of 1 mg/kg, once a day for 13 days to prolong the cure of the ulcer induced by acetic acid.
Each of them was suspended in 0.5% methylcellulose solution, and administered orally in a dose of 50 mg/kg, twice a day (in the morning and in the evening) from 13 days, respectively. The animal was sacrificed by ether on the day after the last administration, and the stomach was taken out therefrom. The area of the ulcer was measured. The obtained results were subjected to the following formula to calculate a percentage of improvement for curing ulcer. To control group, only the medium for the medicament solution was administered in an amount of 0.5 ml/100 g (body weight). Twenty rats were used in each group for the test. [formula]

Assay [6] concerns ulcer induced by acetic acid. Briefly: Test of ulcer induced by acetic acid. Type of assay: in vivo, wistar male rat. The note with it: rat, 15 mg/kg oral, twice a day from 2 days after generation of the ulcer. The protocol: as §1
Into the junction of the glandular stomach and the antrum, of a wistar male rat weighing 220 to 240 g, was injected subserosally […] of 20% acetic acid to generate an ulcer induced by acetic acid. […] Each of them was suspended in 0.5% methylcellulose solution, and administered orally in a dose of 15 mg/kg, twice a day (in the morning and in the evening) from 2 days after the generation of the ulcer for days, respectively. The animal was sacrificed by ether on the day after the last administration, and the stomach was taken out therefrom. The area of the ulcer was measured.
The obtained results were subjected to the following formula to calculate a percentage of improvement for curing ulcer. To control group, only the medium for the medicament solution was administered in an amount of 0.5 ml/100 g (body weight). Twenty rats were used in each group for the test. [formula]

Consider `O=C(C[S+]([O-])Cc1ccco1)NC/C=C\COc1cc(CN2CCCCC2)ccn1` (stereo not drawn) [FRG-8813, reference compound], for which the inhibition in vivo at 30 mg/kg in assay [1] is 85%; in assay [4] it was 70%. The inhibition in vivo at 100 mg/kg in assay [2] is 27%. In addition, in assay [3], the “Percentage of increase of blood flow” value was found to be 3%. Moreover, the figures for the “Percentage of improvement for curing ulcer” value in assay [5] and in assay [6] were -5% and 12%, respectively.
Regarding `CCOC(=O)NCC[S+]([O-])CC(=O)NC/C=C\COc1cccc(CN2CCCCC2)c1` (stereo not drawn) [Example 75, N-[4-[3-(piperidinomethyl)phenoxy]-cis-2-butenyl]-2-[2-(ethoxycarbonylamino)ethylsulfinyl]acetamide], the results for the inhibition in vivo at 30 mg/kg in assay [1] and in assay [4] were 87% and 82%, respectively. Further, in assay [2], the inhibition in vivo at 100 mg/kg came to 96%. The “Percentage of increase of blood flow” value in assay [3] is listed as 15%. The “Percentage of improvement for curing ulcer” value in assay [5] came out at 49%; in assay [6], 24%.
